Data reported in US20230382868A1 (priority 2022, published 2023).
Like-named read-outs stand apart in the source and are kept apart here.

What was measured:
hBChE = hBChE (Homo sapiens, UniProt P06276); test: biochemical; type: biochemical
hMAO-B = molecular target: T1, hMAO-B (Homo sapiens, UniProt P27338); type: biochemical; conditions: read-out: IC50 ± SEM hMAO-B
T1 construct: purchased Sigma Aldrich; host or cells: BTI-TN-5B1-4 insect cells
T1 sequence (P27338 1-520): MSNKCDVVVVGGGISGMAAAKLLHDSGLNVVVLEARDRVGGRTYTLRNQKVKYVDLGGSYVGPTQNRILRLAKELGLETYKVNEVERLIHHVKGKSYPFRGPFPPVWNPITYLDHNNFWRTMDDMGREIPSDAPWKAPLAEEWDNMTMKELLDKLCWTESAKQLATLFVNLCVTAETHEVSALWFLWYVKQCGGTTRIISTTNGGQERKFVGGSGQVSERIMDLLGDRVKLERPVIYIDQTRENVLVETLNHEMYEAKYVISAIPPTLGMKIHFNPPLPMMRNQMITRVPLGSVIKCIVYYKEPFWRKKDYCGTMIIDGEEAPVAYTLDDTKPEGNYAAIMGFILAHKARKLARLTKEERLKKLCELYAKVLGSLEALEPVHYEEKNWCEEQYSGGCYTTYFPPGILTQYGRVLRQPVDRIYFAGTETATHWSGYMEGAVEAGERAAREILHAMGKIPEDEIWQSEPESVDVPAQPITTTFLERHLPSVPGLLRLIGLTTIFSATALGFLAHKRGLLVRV

[1] = DPPH radical-scavenging assay; conditions: read-out: free-radical scavenging potency EC50 ± SEM (concentration that scavenged 50% of the DPPH free radicals); DPPH in MeOH, 90 min, room temperature, dark
Procedure: Free-radical scavenging potency was evaluated using the DPPH assay. […] The microtiter plate was incubated at room temperature in the dark for 90 min. The absorbance at 517 nm was then determined with a microplate reader (Synergy HT; BioTek Instruments, Inc., VT, USA). The experiments were performed in triplicate, with subtraction of the blank value (compound without DPPH). The percentages of DPPH free radicals were calculated as DPPH free radical (%)=[(A0−A1)/A0]×100, where A0 is the absorbance of the negative control, and A1 is the absorbance of the test sample. […] Resveratrol and Trolox were used as the positive controls under the same assay conditions.

[2] = Metal-chelating properties (UV-Vis spectra, Cu2+ titration, Yoe-Jones method); type: physicochemical; conditions: 30 μM compound; for interception point of Cu2+ titration (Yoe-Jones method): 0-150 μM Cu2+, Cu2+/compound molar ratio; for change in absorption spectra on addition of Fe2+ and Fe3+ / change in absorption spectra with Ca2+ and Mg2+: equimolar metal ion, HEPES buffer pH 7.4
Procedure: The chelation properties were determined in HEPES buffer (20 mM, 150 mM NaCl, pH 7.4) using a 96-well microplate reader (Synergy HT; BioTek Instruments, Inc., VT, USA). To determine the chelation of the metal ions by the compounds, 30 μM compound solution was treated with equimolar concentrations of CuCl2, ZnCl2, CoCl2, MgCl2, CaCl2, FeCl2, FeCl3, and AlCl3. To prevent oxidation of Fe^2+, the solution of FeCl2 was prepared in the presence of 1 mM ascorbic acid. The absorption spectra were recorded after 30 min incubation at room temperature. The chelation was detected by the change in the absorption spectra, which was specific for each metal ion. The Cu^2+ binding stoichiometry was resolved by titration of a 30 μM buffered solution of the compounds with additions of CuCl2 buffered stock solution. […] The absorbance differences in the absence and presence of Cu^2+ were plotted against the Cu^2+/compound molar ratio.

[3] = Antioxidant capacity against hydroxyl radicals; conditions: statement in words, no method given
hAChE = hAChE (Homo sapiens, UniProt P22303); test: Inhibition of cholinesterases (Ellman method); type: biochemical; conditions: n.a. = not active (residual activity at 100 μM ≥50%); three independent experiments; read-out: IC50 ± SEM hAChE
hAChE, sequence (P22303 32-614): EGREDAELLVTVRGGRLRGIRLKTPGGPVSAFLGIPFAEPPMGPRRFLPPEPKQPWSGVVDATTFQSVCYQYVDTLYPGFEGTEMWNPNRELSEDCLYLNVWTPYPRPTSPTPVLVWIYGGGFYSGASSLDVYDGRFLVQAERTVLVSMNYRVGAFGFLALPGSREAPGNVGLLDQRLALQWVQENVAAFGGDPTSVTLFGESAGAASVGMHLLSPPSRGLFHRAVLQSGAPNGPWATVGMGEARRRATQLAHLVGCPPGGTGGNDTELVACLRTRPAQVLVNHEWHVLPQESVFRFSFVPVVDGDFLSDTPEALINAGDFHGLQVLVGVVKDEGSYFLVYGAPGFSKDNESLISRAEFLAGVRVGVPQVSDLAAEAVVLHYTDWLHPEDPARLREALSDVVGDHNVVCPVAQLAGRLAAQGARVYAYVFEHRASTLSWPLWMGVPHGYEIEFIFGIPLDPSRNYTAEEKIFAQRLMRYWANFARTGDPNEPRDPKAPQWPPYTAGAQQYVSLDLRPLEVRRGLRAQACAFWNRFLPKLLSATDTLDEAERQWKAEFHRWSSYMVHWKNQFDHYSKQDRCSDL

primary cultured neurons = test: Neuroprotection of primary cultured neurons after experimental ischemia; type: cell-based; conditions: statement in words, no method given
[4] = HEPES buffer pH 7.4, 30 min, room temperature

hBChE, sequence (P06276 29-602): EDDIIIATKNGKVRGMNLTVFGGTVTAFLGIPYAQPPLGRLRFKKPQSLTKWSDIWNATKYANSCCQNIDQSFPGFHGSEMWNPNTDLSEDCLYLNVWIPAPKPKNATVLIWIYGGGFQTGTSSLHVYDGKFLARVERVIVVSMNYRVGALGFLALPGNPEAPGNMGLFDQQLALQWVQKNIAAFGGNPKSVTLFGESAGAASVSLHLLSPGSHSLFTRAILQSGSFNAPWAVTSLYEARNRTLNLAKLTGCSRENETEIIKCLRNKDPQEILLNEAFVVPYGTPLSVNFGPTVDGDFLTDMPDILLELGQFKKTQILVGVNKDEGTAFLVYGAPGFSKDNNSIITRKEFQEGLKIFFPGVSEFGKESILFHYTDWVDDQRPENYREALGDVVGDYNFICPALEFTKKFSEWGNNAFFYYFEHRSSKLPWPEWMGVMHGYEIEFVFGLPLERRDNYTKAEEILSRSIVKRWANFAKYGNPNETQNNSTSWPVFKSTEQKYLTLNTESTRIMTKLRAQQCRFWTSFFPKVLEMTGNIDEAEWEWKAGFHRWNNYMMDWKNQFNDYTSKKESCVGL

In the case of `CC(C)(C)/[N+]([O-])=C/c1ccc2cccc(OCCCN3CCCCC3)c2n1` [Compound 3, (Z)-N-tert-Butyl-1-(8-(3-(piperidin-1-yl)propoxy)quinolin-2-yl)methanimine oxide], the IC50 (hBChE; read-out: IC50 ± SEM hBChE) is reported as 25.4 ± 2.1 nM.

For `[O-]/[N+](=C\c1ccc2cccc(OCCCN3CCCCC3)c2n1)Cc1ccccc1` [Compound 4, (Z)-N-Benzyl-1-(8-(3-(piperidin-1-yl)propoxy)quinolin-2-yl)methanimine oxide], the IC50 (hBChE) was 76.9 ± 6.3 nM.

Compound `C#CCN1CCN(CCCOc2cccc3ccc(/C=[N+](\[O-])C(C)(C)C)nc23)CC1` [Compound 7, (Z)-N-tert-Butyl-1-(8-(3-(4-(prop-2-yn-1-yl)piperazin-1-yl)propoxy)quinolin-2-yl)methanimine oxide] has an IC50 (hBChE; read-out: IC50 ± SEM hBChE) of 7.3 ± 1.1 nM.

For `C#CCN1CCN(CCCOc2cccc3ccc(/C=[N+](\[O-])Cc4ccccc4)nc23)CC1` [Compound 8, (Z)-N-Benzyl-1-(8-(3-(4-(prop-2-yn-1-yl)piperazin-1-yl)propoxy)quinolin-2-yl)methanimine oxide], the IC50 (hBChE) was 31 ± 6.4 nM.

`C/[N+]([O-])=C/c1ccc2cccc(O)c2n1` [Compound 9, (Z)-1-(8-Hydroxyquinolin-2-yl)-N-methylmethanimine oxide] showed an IC50 (hMAO-B) of 10100 ± 2500 nM.

`CC(C)(C)/[N+]([O-])=C/c1ccc2cccc(O)c2n1` [Compound 10, (Z)-N-tert-butyl-1-(8-hydroxyquinolin-2-yl)methanimine oxide] showed an EC50 [1] of 119000 ± 1200 nM, an IC50 (hMAO-B) of 16400 ± 1000 nM and an IC50 (hBChE; read-out: IC50 ± SEM hBChE) of 5.1 ± 0.6 nM. For the same compound, the “interception point of Cu2+ titration (Yoe-Jones method)” value [2] was 0.5, the “new absorption maximum with equimolar Al3+ (bathochromic shift)” value [2, 4] was 296 nm and the “new absorption maximum with equimolar Cu2+ (bathochromic shift)” value [2, 4] was 310 nm. The “new absorption maximum with equimolar Zn2+ (bathochromic shift)” value [2, 4] was 309 nm, the “change in absorption spectra on addition of Fe2+ and Fe3+” value [2] was “hyperchromic shift” and the “change in absorption spectra with Ca2+ and Mg2+” value [2] was “no major changes in absorption spectra”.

With `[O-]/[N+](=C\c1ccc2cccc(O)c2n1)Cc1ccccc1` [Compound 11, (Z)-N-Benzyl-1-(8-hydroxyquinolin-2-yl)methanimine oxide] the EC50 [1] was 126000 ± 100 nM, the “antioxidant capacity against hydroxyl radicals” value [3] was “striking antioxidant capacity” and the IC50 (hBChE) was at most 1.1 nM. The IC50 (hAChE) was 29 ± 3 nM, the “neuroprotection of primary cultured neurons after experimental ischemia” value (primary cultured neurons) was “remarkable activity for neuroprotection” and the “interception point of Cu2+ titration (Yoe-Jones method)” value [2] was 0.5. For the same compound, the “change in absorption spectra on addition of Fe2+ and Fe3+” value [2] was “hypochromic change in absorbance spectra” and the “change in absorption spectra with Ca2+ and Mg2+” value [2] was “no major alterations in spectra”.
